In patent EP2601188B1, “HEPATITIS C VIRUS INHIBITORS” (Bristol-Myers Squibb Company, priority 2010, dated 2012):
Where two headings read alike, the source gives them in different places.

System: HCV 1b genotype
Assay: HCV Replicon assay (HCV-neo replicon cells, wild-type)
Type: cell-based
Settings: Hepatitis C virus, HCV 1b genotype replicon
Protocol: An HCV Replicon assay was utilized in the present disclosure, and was prepared, conducted and validated as described in commonly owned PCT/US2006/022197 and in O'Boyle et. al. Antimicrob Agents Chemother. 2005 Apr;49(4):1346-53. Assay methods incorporating luciferase reporters have also been used as described (Apath.com).
HCV-neo replicon cells and replicon cells containing mutations in the NS5A region were used to test the currently described family of compounds. The compounds were determined to have more than 10-fold less inhibitory activity on cells containing mutations than wild-type cells. Thus, the compounds of the present disclosure can be effective in inhibiting the function of the HCV NS5A protein and are understood to be as effective in combinations as previously described in application PCT/US2006/022197 and commonly owned WO/O4014852. Further, the compounds of the present disclosure can be effective against the HCV 1b genotype. It should also be understood that the compounds of the present disclosure can inhibit multiple genotypes of HCV. […] In one embodiment, compounds of the present disclosure are inhibitory versus 1a, 1b, 2a, 2b, 3a, 4a, and 5a genotypes.

[1] = class symbols, read-out: EC50 Range

Compound	EC50 [1] [pM]	EC50 (values given in pM, read-out: EC50) [pM]	EC50 (values in nM, read-out: EC50) [pM]
O=C(Nc1cccc(-c2ncc(-c3ccc4[nH]c([C@@H]5CCCN5C(=O)CC5CC5)nc4c3)o2)c1)[C@@H]1CCCN1C(=O)CC1CC1 [J.53, 1-(cyclopropylacetyl)-N-(3-(5-(2-((2S)-1-(cyclopropylacetyl)-2-pyrrolidinyl)-1H-benzimidazol-5-yl)-1,3-oxazol-2-yl)phenyl)-L-prolinamide]	100000 to 999000	–	–
COC(=O)N[C@H](C(=O)N1[C@@H]2C[C@@H]2C[C@H]1c1nc2c([nH]1)-c1ccc(-c3ccc4[nH]c([C@@H]5C[C@H]6C[C@H]6N5C(=O)[C@@H](NC(=O)OC)C(C)C)nc4c3)cc1CCC2)C(C)C [J.24, methyl ((1S)-1-(((1R,3S,5R)-3-(8-(2-((1R,3S,5R)-2-((2S)-2-((methoxycarbonyl)amino)-3-methylbutanoyl)-2-azabicyclo[3.1.0]hex-3-yl)-1H-benzimidazol-5-yl)-1,4,5,6-tetrahydrobenzo[3,4]cyclohepta[1,2-d]imidazol-2-yl)-2-azabicyclo[3.1.0]hex-2-yl)carbonyl)-2-methylpropyl)carbamate]	–	10	–
CCN(CC)[C@@H](C(=O)N1CCC[C@H]1c1nc2cc(C#Cc3cccc(-c4[nH]cnc4[C@@H]4CCCN4C(=O)[C@@H](c4ccccc4)N(CC)CC)c3)ccc2[nH]1)c1ccccc1 [J.28m, (1R)-2-((2S)-2-(5-(3-((2-((2S)-1-((2R)-2-(diethylamino)-2-phenylacetyl)-2-pyrrolidinyl)-1H-benzimidazol-5-yl)ethynyl)phenyl)-1H-imidazol-4-yl)-1-pyrrolidinyl)-N,N-diethyl-2-oxo-1-phenylethanamine]	4570 to 99000	–	55700
O=C(Nc1ccc(-c2ncc(-c3ccc4[nH]c([C@@H]5CCCN5C(=O)[C@H](O)c5ccccc5)nc4c3)o2)cc1F)[C@@H]1CCCN1C(=O)[C@H](O)c1ccccc1 [J.51, N-(2-fluoro-4-(5-(2-((2S)-1-((2R)-2-hydroxy-2-phenylacetyl)-2-pyrrolidinyl)-1H-benzimidazol-5-yl)-1,3-oxazol-2-yl)phenyl)-1-((2R)-2-hydroxy-2-phenylacetyl)-L-prolinamide]	4570 to 99000	–	–
COc1cccc2c(C(=O)N3CCC[C@H]3C(=O)Nc3cccc(-c4ncc(-c5ccc6[nH]c([C@@H]7CCCN7C(=O)c7nc(Cl)cc8c(OC)cccc78)nc6c5)o4)c3)nc(Cl)cc12 [J.48d, 1-((3-chloro-5-methoxy-1-isoquinolinyl)carbonyl)-N-(3-(5-(2-((2S)-1-((3-chloro-5-methoxy-1-isoquinolinyl)carbonyl)-2-pyrrolidinyl)-1H-benzimidazol-5-yl)-1,3-oxazol-2-yl)phenyl)-L-prolinamide]	100000 to 999000	–	147000
COC(=O)N[C@@H](C(=O)N1CCC[C@H]1c1nc(C#Cc2ccc(-c3ccc4[nH]c([C@@H]5CCCN5C(=O)[C@H](NC(=O)OC)C(C)C)nc4c3)cc2)c[nH]1)C(C)C [JB.8.1, methyl ((1R)-1-(((2S)-2-(4-((4-(2-((2S)-1-((2R)-2-((methoxycarbonyl)amino)-3-methylbutanoyl)-2-pyrrolidinyl)-1H-benzimidazol-5-yl)phenyl)ethynyl)-1H-imidazol-2-yl)-1-pyrrolidinyl)carbonyl)-2-methylpropyl)carbamate]	100000 to 999000	–	–
Cc1ccc(-c2ncc(-c3ccc4[nH]c([C@@H]5CCCN5C(=O)[C@@H](c5ccccc5)N(C)C)nc4c3)o2)cc1NC(=O)[C@@H]1CCCN1C(=O)CN(C)C [J.52a, N,N-dimethylglycyl-N-(5-(5-(2-((2S)-1-((2R)-2-(dimethylamino)-2-phenylacetyl)-2-pyrrolidinyl)-1H-benzimidazol-5-yl)-1,3-oxazol-2-yl)-2-methylphenyl)-L-prolinamide]	4570 to 99000	–	–
